Test results published in the supplement of paper PMC10307832.

Tests used:
Assay in all cases: relative viability (nuclei count vs DMSO), 5 days (fraction); higher = more cells survive
Ibrutinib + Crizotinib = compound: C=CC(=O)N1CCC[C@@H](n2nc(-c3ccc(Oc4ccccc4)cc3)c3c(N)ncnc32)C1 [Ibrutinib] + C[C@@H](Oc1cc(-c2cnn(C3CCNCC3)c2)cnc1N)c1c(Cl)ccc(F)c1Cl [Crizotinib] (partner 1 µM)
Summary of the method: (§1)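 A single step with final 0.05% Triton X-100, 1% formaldehyde and 1 ug/ml Hoechst fixed the cells and stained nuclei 5 days after treatment. Lung cancer cell lines in 1536-well plates had been treated by pin tool the day after seeding with one drug alone or a fixed anchor-drug dose plus five library-drug doses (not always all listed) in √10 steps, and nuclei were counted on 4× images. Relative viability is the ratio of nuclei in treated wells to nuclei in vehicle wells, taken as the median of duplicate plates.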

PAC-1 + Bortezomib = compound: C=CCc1cccc(/C=N/NC(=O)CN2CCN(Cc3ccccc3)CC2)c1O [PAC-1] + CC(C)C[C@H](NC(=O)[C@H](Cc1ccccc1)NC(=O)c1cnccn1)B(O)O [Bortezomib] (partner 0.002 µM)
Summary of the method: as §1

PAC-1 + Vorinostat = compound: C=CCc1cccc(/C=N/NC(=O)CN2CCN(Cc3ccccc3)CC2)c1O [PAC-1] + O=C(CCCCCCC(=O)Nc1ccccc1)NO [Vorinostat] (partner 1 µM)
Summary of the method: as §1

Ibrutinib + Luminespib = compound: C=CC(=O)N1CCC[C@@H](n2nc(-c3ccc(Oc4ccccc4)cc3)c3c(N)ncnc32)C1 [Ibrutinib] + CCNC(=O)c1noc(-c2cc(C(C)C)c(O)cc2O)c1-c1ccc(CN2CCOCC2)cc1 [Luminespib] (partner 0.01 µM)
Summary of the method: as §1

| Cell Line | relative viability (Ibrutinib + Crizotinib; first compound 0.005 µM) | relative viability (Ibrutinib + Crizotinib; first compound 0.01581 µM) | relative viability (Ibrutinib + Crizotinib; first compound 0.05 µM) | relative viability (Ibrutinib + Crizotinib; first compound 0.1581 µM) | relative viability (Ibrutinib + Crizotinib; first compound 0.5 µM) | relative viability (PAC-1 + Bortezomib; first compound 0.02 µM) | relative viability (PAC-1 + Bortezomib; first compound 0.06325 µM) | relative viability (PAC-1 + Bortezomib; first compound 0.2 µM) | relative viability (PAC-1 + Bortezomib; first compound 2 µM) | relative viability (PAC-1 + Vorinostat; first compound 0.02 µM) | relative viability (PAC-1 + Vorinostat; first compound 0.06325 µM) | relative viability (PAC-1 + Vorinostat; first compound 0.2 µM) | relative viability (PAC-1 + Vorinostat; first compound 2 µM) | relative viability (Ibrutinib + Luminespib; first compound 0.005 µM) | relative viability (Ibrutinib + Luminespib; first compound 0.01581 µM) | relative viability (Ibrutinib + Luminespib; first compound 0.05 µM) | relative viability (Ibrutinib + Luminespib; first compound 0.1581 µM) | relative viability (Ibrutinib + Luminespib; first compound 0.5 µM) |
| --- | --- | --- | --- | --- | --- | --- | --- | --- | --- | --- | --- | --- | --- | --- | --- | --- | --- | --- |
| A-427 | 0.89 | 0.87 | 1.03 | 0.875 | 0.832 | 1.05 | 1.01 | 0.963 | 0.958 | 0.891 | 0.889 | 0.86 | 0.8 | 1.09 | 0.85 | 0.832 | 1.1 | 1.01 |
| ABC-1 | 1.21 | 1.03 | 1.57 | 1.56 | 1.03 | 0.336 | 0.371 | 0.258 | 0.319 | 1.06 | 1 | 1.44 | 1.09 | 0.476 |  | 0.68 |  | 0.562 |
| LC-2-ad |  | 0.449 | 0.546 | 0.476 | 0.419 | 0.981 | 0.971 | 0.999 | 0.957 | 0.743 | 0.632 | 0.691 | 0.698 | 1.06 | 1.01 | 1.14 | 1.13 |  |
| NCI-H727 | 0.74 | 0.616 | 0.71 | 0.868 | 0.617 | 0.905 | 0.925 | 0.944 | 0.818 | 1.09 | 1.1 | 1.06 | 1.13 |  | 0.597 | 0.282 |  | 0.516 |
| COR-L23 | 0.707 | 0.641 | 0.693 | 0.644 | 0.653 | 1.1 | 0.93 | 0.913 | 0.966 | 0.415 | 0.429 |  | 0.364 | 0.605 | 0.681 | 0.722 | 0.597 | 0.622 |
| NCI-H3122 | 0.237 | 0.263 | 0.254 | 0.253 | 0.244 | 1.03 | 1.05 | 1 | 0.977 | 1.01 | 0.972 | 0.787 | 0.83 | 0.0621 | 0.0853 | 0.101 | 0.104 | 0.0947 |
| NCI-H322M | 0.964 | 0.848 | 0.887 | 1.03 | 0.608 | 1.21 | 1.31 | 1.28 | 1.07 | 0.749 | 0.907 | 1.04 | 0.828 | 0.648 | 0.726 | 0.785 | 0.752 | 0.473 |
| HCC-44 | 0.813 | 0.782 | 0.801 | 0.866 | 0.743 | 0.894 | 0.885 | 0.947 | 0.934 | 1.11 | 1.05 | 1.03 | 1.09 | 1.11 | 1.02 | 0.977 |  | 1.16 |
| NCI-H441 | 0.669 | 0.842 | 0.919 | 0.707 | 0.881 | 0.57 | 0.358 | 0.265 | 0.778 | 0.87 | 1.05 | 0.82 | 0.761 | 0.362 | 0.359 | 0.266 | 0.36 | 0.235 |
